Converted amounts (≈) assume the structure as drawn.
Columns and labels:
physchem = conditions: water
[1] = test system: in vitro fertilized ova (2-cell embryos); assay: Retransfer study / fertility trial (in vitro fertilized 2-cell embryos transferred into foster mothers); assay type: in vivo, mice; conditions: for No. of Implantation Spots: Odds / No. of Viable Fetuses: Odds: successes divided by failures; for No. of Implantation Spots: Failures: transferred ova minus implantation spots; for No. of Viable Fetuses: Failures: transferred ova minus viable fetuses; for Odds Ratio for comparison to FF-MAS, No. of Implantation Spots / Odds Ratio for comparison to FF-MAS, No. of Viable Fetuses: versus FF-MAS 10 μM
Protocol: In vitro fertilization was performed as described above for the IVF experiment.
One day before the retransfer female recipient mice (foster mothers) in pro-estrus cycle state were mated with vasectomized males in order to trigger pseudogestation. One day later a vaginal check was performed. Animals with a positive, sperm-free vaginal plug (successful mating) entered the study. This day was designated day 0 of gestation (=day 0 after the sterile copulation, day 0 p.c.). […] 2-cell embryos were transferred into the right tube of the foster mothers on day 0 after the sterile copulation under anesthesia. The contra-lateral tube remained unused (check for pseudogestation). The foster mothers were sacrified on day 19 of gestation. The fetuses were removed and examined. The ovaries and uteri were removed immediately to record the number of implantation sites, viable and dead fetuses and resorptions. Apparently non-pregnant uteri were placed in a 10% aqueous solution of ammonium sulfide for about 10 min to stain possible implantation sites in the endometrium. The viable fetuses were individually weighed and their sex determined by inspection of their gonads.
In a fertility trial 269 mice were randomized into 6 groups and implanted with 7-10 in vitro fertilized ova. The in vitro fertilization took place in the presence of vehicle (group 1) or of a substance (groups 2 to 6).
The fertility raising effect of the substances in comparison to the vehicle control was of main interest. Moreover, an improvement compared to the substance FF-MAS was also investigated.
Variables of primary interest are the number of implantation spots and the number of viable fetuses.
The data for implantation spots as well as for viable fetuses have to be considered to have binary character, i.e. it can be expressed in rates or in a number of successes and failures with respect to the number of transferred ova. Therefore, methods as outlined by D. Collett: “Modelling Binary Data”, 2nd edition, Chapman & Hall/CRC, Boca Raton, constitute appropriate approaches to the data analysis.
The odds ratio of one group as compared to the other is defined as: odds ratio (group 1, group 2)=or1,2=odds (group 1)/odds (group 2)
where the odds of a group can be estimated by the number of successes divided by the number of failures in that group.
To reach statements about the significance of any findings, 95% confidence-intervals for the odds ratios are computed as: [ exp(log(or1,2)[…]1.96·se(log(or1,2))); exp(log(or1,2)+1.96·se(log(or1,2)))]
wherein se(log(or1,2)) is the standard error of the log odds ratio (see D. Collett (2003) for the corresponding formula).
As a basis for the computation of odds ratios, the number of successes (i.e., the number of implantation spots of number of viable fetuses) and failures (i.e., the number of transferred ova minus the number of implantation spots or number of viable fetuses) are computed for all groups.

C[C@H](CN1CCSCC1)[C@H]1CC=C2C3=C(CC[C@@]21C)[C@@]1(C)CC[C@H](O)C(C)(C)[C@@H]1CC3 [Compound IA, (20S)-20-[(thiomorpholin-4-yl)methyl]-4,4-dimethyl-5α-pregna-8,14-dien-3β-ol]
solubility (physchem): ~4 µg/mL (≈ 9.01 µM)
No. of Implantation Spots: Success ([1]; 1 μM): 120
No. of Viable Fetuses: Success ([1]; 1 μM): 51
Odds Ratio for comparison to vehicle control, No. of Implantation Spots ([1]; 1 μM): 1.51
Odds Ratio for comparison to vehicle control, No. of Viable Fetuses ([1]; 1 μM): 1.70
increase of the odds of a successful implantation versus vehicle control ([1]; 1 μM): 51%
No. of Implantation Spots: Odds ([1]; 1 μM): 0.38
No. of Viable Fetuses: Odds ([1]; 1 μM): 0.13
No. of Implantation Spots: Failures ([1]; 1 μM): 317
No. of Viable Fetuses: Failures ([1]; 1 μM): 386
Odds Ratio for comparison to FF-MAS, No. of Implantation Spots ([1]; 1 μM): 1.27
Odds Ratio for comparison to FF-MAS, No. of Viable Fetuses ([1]; 1 μM): 1.15
No. of Implantation Spots: Success ([1]; 10 μM): 123
No. of Viable Fetuses: Success ([1]; 10 μM): 40
Odds Ratio for comparison to vehicle control, No. of Implantation Spots ([1]; 10 μM): 1.55
Odds Ratio for comparison to vehicle control, No. of Viable Fetuses ([1]; 10 μM): 1.29
better chance (odds) of a successful implantation versus vehicle control ([1]; 10 μM): 55%
No. of Implantation Spots: Odds ([1]; 10 μM): 0.39
No. of Viable Fetuses: Odds ([1]; 10 μM): 0.10
No. of Implantation Spots: Failures ([1]; 10 μM): 317
No. of Viable Fetuses: Failures ([1]; 10 μM): 400
Odds Ratio for comparison to FF-MAS, No. of Implantation Spots ([1]; 10 μM): 1.30
Odds Ratio for comparison to FF-MAS, No. of Viable Fetuses ([1]; 10 μM): 0.87
shows significant improvement of odds versus vehicle control, number of implantation spots ([1]; 95% confidence interval of odds ratio, all doses tested): significant improvement of odds
implantation rate per transferred 2-cell embryos (FIG. 4) ([1]; FF-MAS 10 μM, compound IA 1 μM and 10 μM): higher numbers
increase of the odds for a success in terms of viable fetuses versus vehicle control ([1]; lower doses (1 μM)): 70%
